Columns and labels:
[1] = biological target: pre-miR-21; assay: Binding affinity measurement by intrinsic fluorescence; details: WT pre-miR-21
Experimental: Binding Affinity Measurements. Binding assays were completed as previously described.8 Briefly, WT pre-miR-21 (5′-[…]-3′) or a mutant pre-miR-21 with the A-bulge and U-bulges replaced with base pairs (5′-[…]-3′) was folded in 1× Assay Buffer (8 mM Na2HPO4, pH 7.0, 185 mM NaCl, and 1 mM EDTA) by heating at 95° C. for 1 min followed by cooling on ice for 10 min. After cooling, BSA was added to a final concentration of 40 μg/mL. RiboTAC 7 was then added to the solution to a final concentration of 0.5 μM. The RNA solution was serial diluted with 1× Assay Buffer supplemented with 40 μg/mL BSA and 0.5 μM of 7. The solutions were incubated in the dark for 30 min at room temperature before being transferred to a black 384-well plate (Corning 4514, low-volume, non-binding) Fluorescence intensity was measured using a Tecan infinite M1000 Pro (Gain: 100) with excitation wavelength of 380 nm and emission wavelength of 425 nm. Binding affinity was calculated using Equation 1, as previously described:8
where I and I0 are the measured fluorescence intensity of compound with or without RNA, respectively, Δε is the difference between the fluorescence intensity with infinite concentration of RNA versus without RNA, [FL]0 and [RNA]0 are the concentrations of small molecule and RNA, respectively, and Kd is the dissociation constant.

[2] = system: phosphorylation of extracellular signal-regulated kinase (ERK); assay: Western blot of pERK versus ERK (RTK signaling); assay type: cell-based; details: CRISPR-Control sgRNA MDA-MB-231 cells
Experimental: Quantification of Protein Levels by Western Blotting. MDA-MB-231 cells were treated as described in “Cell Culture.” After treatment, the medium was removed, and the cells were washed with 1× Dulbecco's phosphate-buffered saline (DPBS). Total protein was extracted using Mammalian Protein Extraction Reagent (M-PER, Thermo Scientific) according to the manufacturer's protocol. Protein concentration was measured using a Pierce Micro BCA Protein Assay kit (Fisher Scientific). Approximately 20 μg total protein was loaded onto a Tris-glycine gel with a 5% polyacrylamide stacking layer and a 10% polyacrylamide resolving layer. The gel was run at 140 V for ˜1.5 h in 1× Running Buffer (25 mM Tris base, pH 8.3, 190 mM glycine, and 0.1% (w/v) SDS). After electrophoresis, the protein was transferred to a PVDF membrane using 1× Transfer Buffer (25 mM Tris base, pH 8.3, 190 mM glycine, and 20% (v/v) methanol). The membrane was then washed with 1×TBST (Tris-buffered saline with 0.1% (v/v) Tween 20) and blocked in a solution of 5% (w/v) milk in 1×TBST for 30 min with shaking at room temperature. The membrane was then incubated overnight at 4° C. in a solution of primary antibody diluted in 1×TBST containing 5% (w/v) milk. […]

[3] = system: MCF-10A cells; assay: Boyden chamber invasion assay, MCF-10A with mutant pre-miR-21; assay type: cell-based; details: Dovitinib-binding site mutated
Experimental: The effect of the RiboTAC on a miR-21-associated invasive phenotype was next assessed. Treatment with 5 μM of 7 reduced the invasiveness of MDA-MB-231 cells, by ˜30% (p<0.05) (FIG. 4E-F). […] While forced expression of a mutant pre-miR-21 in which the Dovitinib-binding site is mutated also produced an invasive phenotype, the cells were insensitive to treatment with 7 (FIG. 12).
MCF-10A cells were first transfected with either a plasmid expressing pre-miR-21 (Addgene; catalog #21114) or a plasmid encoding a pre-miR-21 mutant (custom purchased from GenScript USA, Inc, FIG. 8) using jetPRIME (Polyplus), per the manufacturer's protocol (3.2 μg of plasmid per 60 mm dish). After transfection, cells (50,000 per insert) were seeded into the hanging inserts in serum free growth medium, with or without compound (0.1% final DMSO concentration). The assay was then completed as described for the MDA-MB-231 cells.

[4] = system: PDCD4; assay: Western blot of PDCD4; assay type: cell-based
Experimental: RiboTAC 7 was then assessed for its ability to affect protein levels by deactivation of a miR-21-mediated cancer circuit, i.e., derepression of PDCD4. […] Proteome-wide analysis was also completed to study the effects of 7 and a locked nucleic acid (LNA) oligonucleotide that targets miR-21-5p on the proteome. The concentrations tested of both provided similar activity (5 nM of 7 and 100 nM of the LNA), as assessed by their effect on PDCD4 levels, ˜40% enhancement. […] Neither modality affected proteins that are direct targets of miRNA let-7b-5p, further supporting that RiboTAC 7 is selectively deactivating a miR-21-mediated cancer circuit in cells (FIG. 11C-11D).
Quantification of Protein Levels by Western Blotting. MDA-MB-231 cells were treated as described in “Cell Culture.” After treatment, the medium was removed, and the cells were washed with 1× Dulbecco's phosphate-buffered saline (DPBS). Total protein was extracted using Mammalian Protein Extraction Reagent (M-PER, Thermo Scientific) according to the manufacturer's protocol. Protein concentration was measured using a Pierce Micro BCA Protein Assay kit (Fisher Scientific). […]
Western blots were quantified using ImageJ (National Institutes of Health).^12 Protein expression was normalized to […] abundance. […]

- Kd [1]: 4.6 ± 2.1 µM
Compound: CNC(=O)[C@H](c1ccccc1)N(C)Cc1ccc(-c2cccc(-c3sccc3NC(=O)CCOCCOCCOCCC(=O)NCCN3CCN(c4ccc5nc(-c6c(N)c7c(F)cccc7[nH]c6=O)[nH]c5c4)CC3)c2)cc1 [RiboTAC 7, (S)—N-(2-(4-(2-(4-amino-5-fluoro-2-oxo-1,2-dihydroquinolin-3-yl)-1H-benzo[d]imidazol-6-yl)piperazin-1-yl)ethyl)-3-(2-(2-(3-((2-(4′-((methyl(2-(methylamino)-2-oxo-1-phenylethyl)amino)methyl)-[1,1′-biphenyl]-3-yl)thiophen-3-yl)amino)-3-oxopropoxy)ethoxy)ethoxy)propanamide]
- effect on the levels of ERK or pERK [2]: no effect
- invasive phenotype induced by forced expression of mutant pre-miR-21 [3]: insensitive
- enhancement of PDCD4 levels ([4]; 5 nM of 7 and 100 nM of the LNA as printed): ~40%
- increase of PDCD4 protein levels ([4]; 5 μM, CRISPR-Control sgRNA MDA-MB-231 cells): ~40%
